Data: patent publication US8129380B2, “Phthalazinone derivatives” (AstraZeneca AB, priority 2008, dated 2012)

Tested on: HeLa cells
Test: Potentiation Factor (PF50): MMS growth inhibition, SRB assay
Type: cell-based
Settings: MMS 0-10 μg/ml, ratio IC50 control / IC50 + inhibitor; for PF50 (200 nM): PARP inhibitor at 200 nM; for PF50 (30 nM): PARP inhibitor at 30 nM
Description: The Potentiation Factor (PF50) for compounds is calculated as a ratio of the IC50 of control cell growth divided by the IC50 of cell growth+PARP inhibitor. Growth inhibition curves for both control and compound treated cells are in the presence of the alkylating agent methyl methanesulfonate (MMS). The test compounds were used at a fixed concentration of 0.2 micromolar. The concentrations of MMS were over a range from 0 to 10 μg/ml.
2,000 HeLa cells were seeded into each well of a flat-bottomed 96-well microtiter plate in a volume of 100 μl and incubated for 6 hours at 37° C. Cells were either replaced with media alone or with media containing PARP inhibitor at a final concentration of 30 nM or 200 nM. […] Cells treated with PARP inhibitor alone were used to assess the growth inhibition by the PARP inhibitor.
Cells were left for a further 16 hours before replacing the media and allowing the cells to grow for a further 72 hours at 37° C. The media was then removed and the cells fixed with 100 μl of ice cold 10% (w/v) trichloroacetic acid. The plates were incubated at 4° C. for 20 minutes and then washed four times with water. Each well of cells was then stained with 100 μl of 0.4% (w/v) SRB in 1% acetic acid for 20 minutes before washing four times with 1% acetic acid. Plates were then dried for 2 hours at room temperature. The dye from the stained cells was solubilized by the addition of 100 μl of 10 mM Tris Base into each well.

With `O=C(c1cc(Cc2n[nH]c(=O)c3ccccc23)ccc1F)N1CCC(O)CC1` [Compound 2a, 4-(4-fluoro-3-(4-hydroxypiperidine-1-carbonyl)benzyl)phthalazin-1(2H)-one] the “PF50 (200 nM)” value was 3.

For `O=C(c1cc(Cc2n[nH]c(=O)c3ccccc23)ccc1F)N1CCC(Oc2ccc(F)cc2)CC1` [Compound 2c], the “PF50 (30 nM)” value was 1.9 and the “PF50 (200 nM)” value was 7.

For `O=C(c1cc(Cc2n[nH]c(=O)c3ccccc23)ccc1F)N1CCC(OCC2CC2)CC1` [Compound 2g], the “PF50 (30 nM)” value was 4.3.

With `CC(C)COC1CCN(C(=O)c2cc(Cc3n[nH]c(=O)c4ccccc34)ccc2F)CC1` [Compound 2h] the “PF50 (30 nM)” value was 2.9.

With `O=C(c1cc(Cc2n[nH]c(=O)c3ccccc23)ccc1F)N1CCC(Oc2ccccn2)CC1` [Compound 2i] the “PF50 (30 nM)” value was 16.7.

`O=C(c1cc(Cc2n[nH]c(=O)c3ccccc23)ccc1F)N1CCC(Oc2ccncc2)CC1` [Compound 2j] was tested, and the “PF50 (30 nM)” value was 3.0.

In the case of `O=C(c1cccc(Cc2n[nH]c(=O)c3c(F)ccc(F)c23)c1)N1CCC(OCC2CC2)CC1` [Compound 4a], the “PF50 (30 nM)” value is reported as 1.2.

For `O=C(c1cccc(Cc2n[nH]c(=O)c3c(F)ccc(F)c23)c1)N1CCC(Oc2ccccn2)CC1` [Compound 4b], the “PF50 (30 nM)” value was 2.2.

With `CC(C)COC1CCN(C(=O)c2cccc(Cc3n[nH]c(=O)c4c(F)ccc(F)c34)c2)CC1` [Compound 4c] the “PF50 (30 nM)” value was 1.2.

For `O=C(c1cc(Cc2n[nH]c(=O)c3ccccc23)ccn1)N1CCC(Oc2ccc(Cl)cc2)CC1` [Compound 6a], the “PF50 (30 nM)” value was 1.7 and the “PF50 (200 nM)” value was 4.2.

In the case of `O=C(c1cc(Cc2n[nH]c(=O)c3ccccc23)ccn1)N1CCC(Oc2ccc(F)cc2)CC1` [Compound 6b], the “PF50 (30 nM)” value is reported as 1.5 and the “PF50 (200 nM)” value is reported as 3.5.

With `COC1CCN(C(=O)c2cc(Cc3n[nH]c(=O)c4ccccc34)ccn2)CC1` [Compound 6c] the “PF50 (30 nM)” value was 1.2 and the “PF50 (200 nM)” value was 1.5.

In the case of `O=C(c1cc(Cc2n[nH]c(=O)c3ccccc23)ccn1)N1CCC(Oc2ccccc2)CC1` [Compound 6d], the “PF50 (30 nM)” value is reported as 1.4 and the “PF50 (200 nM)” value is reported as 3.5.

`O=C(c1cc(Cc2n[nH]c(=O)c3ccccc23)ccn1)N1CCC(Oc2ccncc2)CC1` [Compound 6e] was tested, and the “PF50 (30 nM)” value was 1.5 and the “PF50 (200 nM)” value was 1.9.

`O=C(c1cc(Cc2n[nH]c(=O)c3ccccc23)ccn1)N1CCC(Oc2ccccn2)CC1` [Compound 6f] was tested, and the “PF50 (30 nM)” value was 1.8 and the “PF50 (200 nM)” value was 5.0.

In the case of `COCCOC1CCN(C(=O)c2cc(Cc3n[nH]c(=O)c4ccccc34)ccc2F)CC1` [Compound 7, 4-(4-fluoro-3-(4-(2-methoxyethoxy)piperidine-1-carbonyl)benzyl)phthalazin-1(2H)-one], the “PF50 (30 nM)” value is reported as 4.0.

In the case of `COc1cccc(OC2CCN(C(=O)c3cc(Cc4n[nH]c(=O)c5ccccc45)ccc3F)CC2)c1` [Compound 8a, 4-[[4-fluoro-3-[4-(3-methoxyphenoxy)piperidine-1-carbonyl]phenyl]methyl]-2H-phthalazin-1-one], the “PF50 (30 nM)” value is reported as 1.6.

In the case of `COc1ccc(OC2CCN(C(=O)c3cc(Cc4n[nH]c(=O)c5ccccc45)ccc3F)CC2)cc1` [Compound 8b, 4-[[4-fluoro-3-[4-(4-methoxyphenoxy)piperidine-1-carbonyl]phenyl]methyl]-2H-phthalazin-1-one], the “PF50 (30 nM)” value is reported as 23.6.

`CCCOC1CCN(C(=O)c2cc(Cc3n[nH]c(=O)c4ccccc34)ccc2F)CC1` [Compound 8c, 4-[[4-fluoro-3-(4-propoxypiperidine-1-carbonyl)phenyl]methyl]-2H-phthalazin-1-one] was tested, and the “PF50 (30 nM)” value was 12.2.

`COc1ccccc1OC1CCN(C(=O)c2cc(Cc3n[nH]c(=O)c4ccccc34)ccc2F)CC1` [Compound 8d, 4-[[4-fluoro-3-[4-(2-methoxyphenoxy)piperidine-1-carbonyl]phenyl]methyl]-2H-phthalazin-1-one] was tested, and the “PF50 (30 nM)” value was 1.2.

For `O=C(c1cc(Cc2n[nH]c(=O)c3ccccc23)ccc1F)N1CCC(OCc2ccccc2)CC1` [Compound 8e, 4-[[4-fluoro-3-(4-phenylmethoxypiperidine-1-carbonyl)phenyl]methyl]-2H-phthalazin-1-one], the “PF50 (30 nM)” value was 1.4.

`N#CCc1ccc(OC2CCN(C(=O)c3cc(Cc4n[nH]c(=O)c5ccccc45)ccc3F)CC2)cc1` [Compound 8f, 2-[4-[1-[2-fluoro-5-[(4-oxo-3H-phthalazin-1-yl)methyl]benzoyl]piperidin-4-yl]oxyphenyl]acetonitrile] was tested, and the “PF50 (30 nM)” value was 4.1.

In the case of `O=C(c1cc(Cc2n[nH]c(=O)c3ccccc23)ccc1F)N1CCC2(CC1)OCc1ccccc12` [Compound 9, 4-(4-fluoro-3-(3H-spiro[isobenzofuran-1,4′-piperidine]-1′-ylcarbonyl)benzyl)phthalazin-1(2H)-one], the “PF50 (30 nM)” value is reported as 1.3.

In the case of `CC(C)OC1CCN(C(=O)c2cc(Cc3n[nH]c(=O)c4ccccc34)ccc2F)CC1` [Compound 11, 4-(4-fluoro-3-(4-isopropoxypiperidine-1-carbonyl)benzyl)phthalazin-1(2H)-one], the “PF50 (30 nM)” value is reported as 33.6.

For `CC(C)OC1CCN(C(=O)c2cccc(Cc3n[nH]c(=O)c4ccccc34)c2)CC1` [Compound 12], the “PF50 (30 nM)” value was 2.1.

In the case of `O=C(c1cc(Cc2n[nH]c(=O)c3ccccc23)ccc1F)N1CCC(OC2CCC2)CC1` [Compound 15, 4-(3-(4-cyclobutoxypiperidine-1-carbonyl)-4-fluorobenzyl)phthalazin-1(2H)-one], the “PF50 (30 nM)” value is reported as 4.4.

In the case of `C=CCOC1CCN(C(=O)c2cc(Cc3n[nH]c(=O)c4ccccc34)ccc2F)CC1` [Compound 16], the “PF50 (30 nM)” value is reported as 3.4.

`O=C(c1cc(Cc2n[nH]c(=O)c3ccccc23)ccc1F)N1CCC(OC(F)F)CC1` [Compound 19, 4-(3-(4-(difluoromethoxy)piperidine-1-carbonyl)-4-fluorobenzyl)phthalazin-1(2H)-one] was tested, and the “PF50 (30 nM)” value was 2.5.

With `O=C(c1cc(Cc2n[nH]c(=O)c3ccccc23)ccc1F)N1CCC(OCC2CCCO2)CC1` (stereo not drawn) [Compound 20, 4-[[4-fluoro-3-[4-(oxolan-2-ylmethoxy)piperidine-1-carbonyl]phenyl]methyl]-2H-phthalazin-1-one] the “PF50 (30 nM)” value was 2.0.

With `COC1(C)CCN(C(=O)c2cc(Cc3n[nH]c(=O)c4ccccc34)ccc2F)CC1` [Compound 24, 4-[[4-fluoro-3-(4-methoxy-4-methylpiperidine-1-carbonyl)phenyl]methyl]-2H-phthalazin-1-one] the “PF50 (30 nM)” value was 1.5.

With `CC(C)OC1CCN(C(=O)c2cc(Cc3n[nH]c(=O)c4ccccc34)ccn2)CC1` [Compound 25, 4-[[2-(4-propan-2-yloxypiperidine-1-carbonyl)pyridin-4-yl]methyl]-2H-phthalazin-1-one] the “PF50 (30 nM)” value was 2.1.

`O=C(c1cc(Cc2n[nH]c(=O)c3ccccc23)ccc1F)N1CCC(Oc2ccncn2)CC1` [Compound 26a, 4-(4-fluoro-3-(4-(pyrimidin-4-yloxy)piperidine-1-carbonyl)benzyl)phthalazin-1(2H)-one] was tested, and the “PF50 (30 nM)” value was 3.7.

In the case of `Cc1ccc(OC2CCN(C(=O)c3cc(Cc4n[nH]c(=O)c5ccccc45)ccc3F)CC2)nn1` [Compound 26b], the “PF50 (30 nM)” value is reported as 1.5.

In the case of `N#Cc1ccc(OC2CCN(C(=O)c3cc(Cc4n[nH]c(=O)c5ccccc45)ccc3F)CC2)nc1` [Compound 26c], the “PF50 (30 nM)” value is reported as 32.4.

`O=C(c1cc(Cc2n[nH]c(=O)c3ccccc23)ccc1F)N1CCC(Oc2cnccn2)CC1` [Compound 26d] was tested, and the “PF50 (30 nM)” value was 4.0.

In the case of `O=C(c1cc(Cc2n[nH]c(=O)c3ccccc23)ccc1F)N1CCC(Oc2ncccn2)CC1` [Compound 26e], the “PF50 (30 nM)” value is reported as 2.7.

With `N#Cc1ccnc(OC2CCN(C(=O)c3cc(Cc4n[nH]c(=O)c5ccccc45)ccc3F)CC2)c1` [Compound 26f] the “PF50 (30 nM)” value was 4.4.

`NC(=O)c1ccnc(OC2CCN(C(=O)c3cc(Cc4n[nH]c(=O)c5ccccc45)ccc3F)CC2)c1` [Compound 26g] was tested, and the “PF50 (30 nM)” value was 1.6.

In the case of `Cc1nccnc1OC1CCN(C(=O)c2cc(Cc3n[nH]c(=O)c4ccccc34)ccc2F)CC1` [Compound 26h], the “PF50 (30 nM)” value is reported as 12.7.

In the case of `Cc1cnc(OC2CCN(C(=O)c3cc(Cc4n[nH]c(=O)c5ccccc45)ccc3F)CC2)c(C)n1` [Compound 26i], the “PF50 (30 nM)” value is reported as 8.0.

For `Cc1cnc(C)c(OC2CCN(C(=O)c3cc(Cc4n[nH]c(=O)c5ccccc45)ccc3F)CC2)n1` [Compound 26j], the “PF50 (30 nM)” value was 1.2.

With `COc1ccnc(OC2CCN(C(=O)c3cc(Cc4n[nH]c(=O)c5ccccc45)ccc3F)CC2)c1` [Compound 26k] the “PF50 (30 nM)” value was 26.8.

In the case of `N#Cc1nccnc1OC1CCN(C(=O)c2cc(Cc3n[nH]c(=O)c4ccccc34)ccc2F)CC1` [Compound 26l], the “PF50 (30 nM)” value is reported as 1.2.

`O=C(c1cc(Cc2n[nH]c(=O)c3ccccc23)ccc1F)N1CCC(Oc2ccc(Cl)nc2)CC1` [Compound 26m] was tested, and the “PF50 (30 nM)” value was 2.4.

In the case of `O=C(c1cc(Cc2n[nH]c(=O)c3ccccc23)ccc1F)N1CCC(OC(CF)CF)CC1` [Compound 29, 4-(3-(4-(1,3-difluoropropan-2-yloxy)piperidine-1-carbonyl)-4-fluorobenzyl)phthalazin-1(2H)-one], the “PF50 (30 nM)” value is reported as 25.9.

With `O=C(c1cc(Cc2n[nH]c(=O)c3ccccc23)ccc1F)N1CCC(OC2CCCC2)CC1` [Compound 36, 4-(3-(4-(cyclopentyloxy)piperidine-1-carbonyl)-4-fluorobenzyl)phthalazin-1(2H)-one] the “PF50 (30 nM)” value was 14.5 and the “PF50 (200 nM)” value was 24.3.
